Assay results published in the NIST ThermoML archive (doi:10.1021/je5010643).

Experiment: refractive index (Na D-line) (dimensionless); xn = mol fraction of the nth substance listed
Details: 101.32 kPa, Liquid, Standard Abbe refractometry

CC(C)C(=O)O [2-methylpropanoic acid] + C1COCCO1
refractive index
Details	x2 = 0	x2 = 0.1	x2 = 0.2	x2 = 0.3	x2 = 0.4	x2 = 0.5	x2 = 0.6	x2 = 0.7	x2 = 0.8	x2 = 0.9
295.15 K	1.3919	1.3955	1.3988	1.4021	1.4052	1.4082	1.411	1.4137	1.4161	1.4185
298.15 K	1.3907	1.3942	1.3974	1.4007	1.4038	1.4068	1.4096	1.4122	1.4146	1.4171
301.15 K	1.3895	1.3929	1.3961	1.3993	1.4024	1.4054	1.4082	1.4107	1.4132	1.4156
304.15 K	1.3883	1.3916	1.3948	1.3979	1.401	1.4039	1.4067	1.4093	1.4117	1.4141
307.15 K	1.3872	1.3904	1.3936	1.3967	1.3997	1.4026	1.4054	1.4079	1.4103	1.4127
310.15 K	1.386	1.3891	1.3923	1.3953	1.3983	1.4011	1.4038	1.4063	1.4087	1.4112
313.15 K	1.3849	1.3879	1.391	1.3941	1.397	1.3998	1.4025	1.4049	1.4073	1.4098
